One assay relates to Bacillus subtilis. In words: Antibacterial activity against Bacillus subtilis assessed as diameter of inhibition zone at 100 ug/ml by disc diffusion method. Conditions: read-out: DIZ. The class given is functional.
Assay [1] concerns Klebsiella pneumoniae. In words: Antibacterial activity against Klebsiella pneumoniae assessed as diameter of inhibition zone at 100 ug/ml by disc diffusion method. The class given is functional. Conditions: read-out: DIZ. For orientation: In agar diffusion tests the substance spreads into inoculated agar from a disc or well.
Assay [2] concerns Escherichia coli. As to the kind of experiment: Antibacterial activity against Escherichia coli assessed as diameter of inhibition zone at 100 ug/ml by disc diffusion method. It is filed as functional. The conditions noted are these: read-out: DIZ.
Assay [3] concerns the target T1, Alpha-glucosidase (Saccharomyces cerevisiae S288c, UniProt P53341+P38158+P07265). As to the kind of experiment: Inhibition of Saccharomyces cerevisiae alpha-glucosidase preincubated for 5 mins followed by PNP-GLUC substrate addition and measured after 20 mins by spectroscopic analysis. It is filed as protein assay.
Assay [4] relates to Escherichia coli. As to the kind of experiment: Antibacterial activity against Escherichia coli MTCC 723 assessed as diameter of inhibition zone at 0.1 mg/ml incubated for 24 hrs by agar well diffusion method. It is filed as functional. The conditions noted are these: read-out: DIZ.
The target in the next assay is Albumin (Bos taurus, UniProt P02769). In words: […] bovine serum albumin denaturation incubated for 23 mins by UV-Visible spectrophotometry.
Chain of Albumin (P02769 whole entry): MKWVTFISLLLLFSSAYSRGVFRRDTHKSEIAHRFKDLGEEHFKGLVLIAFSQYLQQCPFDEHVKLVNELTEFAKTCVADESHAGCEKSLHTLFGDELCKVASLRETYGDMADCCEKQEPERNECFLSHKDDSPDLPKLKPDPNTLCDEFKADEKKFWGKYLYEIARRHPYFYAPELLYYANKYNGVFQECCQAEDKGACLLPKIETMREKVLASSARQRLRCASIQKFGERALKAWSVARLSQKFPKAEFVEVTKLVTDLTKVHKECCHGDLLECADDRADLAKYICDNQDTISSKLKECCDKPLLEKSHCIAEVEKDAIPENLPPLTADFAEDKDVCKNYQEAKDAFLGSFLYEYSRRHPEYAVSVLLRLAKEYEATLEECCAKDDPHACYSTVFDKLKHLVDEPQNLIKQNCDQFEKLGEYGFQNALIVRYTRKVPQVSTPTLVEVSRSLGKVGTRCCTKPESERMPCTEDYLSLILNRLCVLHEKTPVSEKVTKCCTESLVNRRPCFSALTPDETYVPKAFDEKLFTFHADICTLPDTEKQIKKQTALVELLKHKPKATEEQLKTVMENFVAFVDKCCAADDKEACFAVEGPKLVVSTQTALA
Assay [5] can be described thus: Inhibition of porcine pancreatic alpha-amylase preincubated for 10 mins followed by substrate starch addition and measured after 10 mins by colorimetric analysis. Further details: species or system Sus scrofa.
Assay [6] relates to HepG2. In words: Anticancer activity against human HepG2 cells assessed as reduction in cell viability incubated for 48 hrs by MTT assay. Conditions: HepG2, 48 h. The class given is functional, cell-based.
The subject of another assay is Proteus mirabilis. In words: Antibacterial activity against Proteus mirabilis NTCC-289 assessed as diameter of inhibition zone incubated for 24 hrs by disc diffusion method. The class given is functional.
A further assay deals with Aspergillus ochraceus. As to the kind of experiment: Antifungal activity against Aspergillus ochraceus AUCC-230 assessed as diameter of inhibition zone incubated for 24 hrs by disc diffusion method. The class given is functional.
The subject of assay [7] is Staphylococcus aureus. In words: Antibacterial activity against Staphylococcus aureus NCTC-7447 assessed as diameter of inhibition zone incubated for 24 hrs by disc diffusion method. It is filed as functional.
Another assay concerns Penicillium chrysogenum. In words: Antifungal activity against Penicillium chrysogenum AUCC-530 assessed as diameter of inhibition zone incubated for 24 hrs by disc diffusion method. The class given is functional.
Another assay has as its system Bacillus cereus. In words: Antibacterial activity against Bacillus cereus ATCC-14579 assessed as diameter of inhibition zone incubated for 24 hrs by disc diffusion method. It is filed as functional.
The test system of the next assay is Serratia marcescens. As to the kind of experiment: Antibacterial activity against Serratia marcescens IMRU-70 assessed as diameter of inhibition zone incubated for 24 hrs by disc diffusion method. The class given is functional.
For assay [8], the system named is Klebsiella pneumoniae. In words: Antimicrobial activity against Klebsiella pneumoniae ATCC 15380 assessed as diameter of inhibition zone at 20 mg/ml incubated for 24 hrs by disk diffusion method. It is filed as functional. Conditions: read-out: DIZ.
For assay [9], the system named is HepG2. As to the kind of experiment: Anticancer activity against human HepG2 cells assessed as reduction in cell viability incubated for 24 hrs by MTT colorimetric assay. The class given is functional, cell-based. Conditions: HepG2, 24 h. A general note: Tetrazolium assays rely on reduction of a dye to a coloured formazan, in cell work by metabolically active cells.

A further assay concerns HCT-116. In words: Anticancer activity against human HCT-116 cells assessed as reduction in cell viability incubated for 24 hrs by MTT colorimetric assay. It is filed as functional, cell-based. Conditions: HCT-116, 24 h.
Assay [10] relates to MCF7. In words: Anticancer activity against human MCF7 cells assessed as reduction in cell viability incubated for 24 hrs by MTT colorimetric assay. Conditions: MCF7, 24 h. The class given is functional, cell-based.
The subject of assay [11] is MCF7. In words: cells. Conditions: Homo sapiens, MCF7, 48 h.
The nature of assay [12]: Antioxidant activity assessed as DPPH radical scavenging activity at 12 ug incubated for 30 mins by spectrophotometric analysis. The conditions noted are these: dose 12.0 µg. The class given is functional. On the technique in general: The DPPH test is a chemical assay of radical scavenging.
The test system of a further assay is Candida albicans. In words: Antifungal activity against Candida albicans assessed as diameter of inhibition zone incubated for 48 hrs by agar well diffusion method. The class given is functional.
For assay [13], the system named is Staphylococcus aureus. As to the kind of experiment: Antibacterial activity against Staphylococcus aureus NCIM 2654 assessed as diameter of inhibition zone incubated for 24 hrs by agar well diffusion method. The class given is functional.
Assay [14] is described as follows: Antioxidant activity assessed as DPPH radical scavenging activity. The class given is functional.
Assay [15] is described as follows: Antioxidant activity assessed as NO radical scavenging activity. The class given is functional.
The nature of assay [16]: Antioxidant activity assessed as H2O2 radical scavenging activity. The class given is functional.
Assay [17] addresses T1, Alpha-glucosidase. In words: Inhibition of Saccharomyces cerevisiae alpha-glucosidase assessed as decrease in release of p-nitrophenol using pNPG as substrate incubated for 10 mins by spectroscopic analysis. The class given is protein assay.
Assay [18] has as its system Staphylococcus aureus. As to the kind of experiment: Antibacterial activity against Staphylococcus aureus assessed as diameter of inhibition zone at 100 ug/ml by disc diffusion method. The conditions noted are these: read-out: DIZ. It is filed as functional.

Converted amounts (≈) assume the structure as drawn.

In general, IC50 refers to the concentration at which inhibition is half-maximal.

On to `CCOC(=O)C1=C(C)Oc2nc(C)n(Cc3cn(-c4cccc(C(F)(F)F)c4)nn3)c(=O)c2C1c1ccc([N+](=O)[O-])cc1` (stereo not drawn), for which the results for the zone of inhibition at 100 µg/mL in the assay with Bacillus subtilis, in the assay on Klebsiella pneumoniae [1] and with Escherichia coli [2] were 12 mm, 15.5 mm and 14 mm, respectively.

For the molecule `O=C(C1=C(c2ccccc2O)Oc2[nH]c(=S)[nH]c(=O)c2C1c1ccccc1)N1CCCCC1` (stereo not drawn), the IC50 against Alpha-glucosidase [3] was 7.745 mM; at Albumin, 19.9 µM; in [5], 22.1 µM. Also, the zone of inhibition at 100 µg/mL with Escherichia coli [4] was determined as 13.1 mm.

On to `COc1ccc(C2CC(=O)Oc3[nH]c(=O)[nH]c(=O)c32)cc1` (stereo not drawn), for which the IC50 with HepG2 [6] amounted to 10.6 µM.

For the molecule `COc1ccc(C2CC(=O)Oc3[nH]c(=O)[nH]c(=O)c32)cc1OC` (stereo not drawn), in the assay with HepG2 [6], the IC50 worked out at 8.9 µM.

As for `N#CCc1nc2c3c(ncn2n1)Oc1c(c(=O)oc2ccccc12)C3c1ccc(Cl)cc1` (stereo not drawn), the “diameter of the inhibition zone (DIZ)” value in the assay on Proteus mirabilis amounted to 21 mm; with Aspergillus ochraceus it was 15 mm; in the assay with Staphylococcus aureus [7], 18 mm; in the assay on Penicillium chrysogenum it was 13 mm; in the assay on Bacillus cereus, 19 mm; with Serratia marcescens, 21 mm.

Take `Cc1ccc(C2C(C#N)=C(N)Oc3[nH]c(=O)[nH]c(=O)c32)o1` (stereo not drawn): in the assay with Klebsiella pneumoniae [8], the zone of inhibition at 20000 µg/mL amounted to 16 mm.

For the molecule `N#CC1=C(N)Oc2[nH]nc(-c3ccccc3)c2C1c1coc2ccccc2c1=O` (stereo not drawn), the half-maximal inhibitory concentration (IC50) in the assay with HepG2 [9] was 57.3 µg/mL (≈ 150 µM); in the assay with HCT-116, 54.1 µg/mL (≈ 142 µM); in the assay with MCF7 [10], 69.8 µg/mL (≈ 183 µM).

As for `COc1cc(C2CC(=O)Oc3[nH]c(=O)[nH]c(=O)c32)ccc1O` (stereo not drawn), the results for the IC50 with HepG2 [6] and in the assay with MCF7 [11] were 10.6 µM and 8.9 µM, respectively.

`COc1ccc(C2CC(=O)Oc3[nH]c(=O)[nH]c(=O)c32)cc1O` (stereo not drawn): the IC50 in the assay on HepG2 [6] turned out to be 8.8 µM.

Turning to `Cc1n[nH]c2c1C(c1ccc(Cl)cc1)c1c([nH]c(=O)[nH]c1=O)O2` (stereo not drawn), in assay [12], the Activity was determined as 58.8%. For the same molecule, the “diameter of the inhibition zone (DIZ)” value in the assay on Candida albicans stood at 18 mm; in the assay with Staphylococcus aureus [13], 27 mm.

In the case of `Nc1ncnc2c1C(c1ccc(Cl)cc1)c1ccc(O)cc1O2` (stereo not drawn), the IC50 in assay [14] stood at 36.82 µg/mL (≈ 113 µM); in assay [15], 50.32 µg/mL (≈ 154 µM); in assay [16], 53.54 µg/mL (≈ 164 µM).

On to `COc1cc(/C=C/C(=O)C2=C(/C=C/c3ccc(O)c(OC)c3)Oc3[nH]c(=O)[nH]c(=O)c3C2c2c[nH]c3ccccc23)ccc1O` (stereo not drawn), for which the IC50 on Alpha-glucosidase [17] is 35.3 µM.

On to `C1=COc2ncncc2C1`, for which the zone of inhibition at 100 µg/mL in the assay on Escherichia coli [4] was determined as 13.1 mm.

With `Cc1n[nH]c2c1C(c1ccc([N+](=O)[O-])cc1)c1c([nH]c(=O)[nH]c1=O)O2` (stereo not drawn), the Activity in assay [12] is 98.4%. For the same molecule, the “diameter of the inhibition zone (DIZ)” value in the assay on Candida albicans was determined as 12 mm; with Staphylococcus aureus [13], 20 mm.

Consider `CCOC(=O)n1c(=O)nc2c3c(ncn21)Oc1c(c(=O)oc2ccccc12)C3c1ccc(Cl)cc1` (stereo not drawn), for which the “diameter of the inhibition zone (DIZ)” value in the assay on Proteus mirabilis is recorded as 21 mm; in the assay on Aspergillus ochraceus, 15 mm; in the assay on Staphylococcus aureus [7] it was 18 mm; with Penicillium chrysogenum, 13 mm; with Bacillus cereus, 19 mm; in the assay with Serratia marcescens it was 21 mm.

Consider `CCOC(=O)C1=C(C)Oc2nc(C)n(Cc3cn(-c4ccc([N+](=O)[O-])cc4)nn3)c(=O)c2C1c1ccc([N+](=O)[O-])cc1` (stereo not drawn), for which the zone of inhibition at 100 µg/mL in the assay on Bacillus subtilis was determined as 12.5 mm; with Staphylococcus aureus [18], 14 mm; in the assay on Klebsiella pneumoniae [1], 14 mm; in the assay on Escherichia coli [2] it was 14.5 mm.

The values above are taken from ChEMBL document CHEMBL5241112, “Insights into the recent progress in the medicinal chemistry of pyranopyrimidine analogs” (RSC Med Chem, 2022).
